Assay results from US20180312886A1, “MICROBIAL PRODUCTION OF CHEMICAL PRODUCTS AND RELATED COMPOSITIONS, METHODS AND SYSTEMS” (CARGILL INCORPORATED, priority 2014, published 2018).

Experiments:
[1] = biological target: KASI ketoacyl-ACP synthase (e.g., fabB in E. coli) (Escherichia coli, UniProt P0A953); conditions: KX3_0001, fed-batch medium, 24 h
Method: Cultures were started from freezer stocks by standard practice (Sambrook and Russell, 2001) into 50 mL of LB media plus 100 μg/mL ampicillin and grown to stationary phase overnight at 37° C. with rotation at 225 rpm. Five ml of this culture were transferred to 100 ml of fed-batch or AM2 media plus 40 g/L glucose, 100 kg/ml ampicillin, 1 mM IPTG in triplicate 250-ml baffled flasks, and incubated at 37° C., 225 rpm. […] Dry cell weight (DCW) is calculated as 0.33 times the measured OD600 value, based on baseline DCW to OD600 determinations. All data are the average of triplicate cultures.

[2] = tested on: fatty acid synthase system; format: cell-based, E. coli

KASI ketoacyl-ACP synthase (e.g., fabB in E. coli), sequence (P0A953 whole entry): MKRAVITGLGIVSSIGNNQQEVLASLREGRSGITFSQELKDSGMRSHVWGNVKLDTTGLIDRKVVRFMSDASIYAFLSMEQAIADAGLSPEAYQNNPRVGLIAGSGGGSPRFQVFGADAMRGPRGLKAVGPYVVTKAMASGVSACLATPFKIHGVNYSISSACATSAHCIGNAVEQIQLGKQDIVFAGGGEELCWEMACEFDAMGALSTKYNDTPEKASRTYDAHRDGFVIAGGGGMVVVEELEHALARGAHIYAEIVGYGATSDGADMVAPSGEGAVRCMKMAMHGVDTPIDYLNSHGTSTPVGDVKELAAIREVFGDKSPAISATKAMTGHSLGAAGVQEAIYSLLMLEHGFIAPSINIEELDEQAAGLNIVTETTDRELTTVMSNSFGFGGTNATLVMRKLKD

## C/C=C/C/C=C/CCC(=O)[C@H]1O[C@H]1C(N)=O [cerulenin]
[1]
  increase in specific productivity relative to the results without cerulenin: 31 fold
[2]; BX3_0206, SM3 medium, 24 hours
  increase in specific productivity relative to the results without cerulenin: approximately 40 fold
[2]; strain BX3_0194, SM3 medium, cerulenin, 4 hr
  3HP: 0.003 gIL
